Measured values from ChEMBL document CHEMBL2380241, “Identification of novel SIRT3 inhibitor scaffolds by virtual screening” (Bioorg Med Chem Lett, 2013).
Activity calls are given as the source filed them. No cut-off for these calls is given here.

Experiments:
[1] = target: T1, NAD-dependent protein deacetylase sirtuin-3, mitochondrial (Homo sapiens) (UniProt Q9NTG7); test: Inhibition of recombinant His-tagged SIRT3 (unknown origin) using Fluor de Lys acetylated KI179 as substrate at 200 uM incubated for 5 mins followed by enzyme addition measured after 1 hr by fluorescence assay relative to control
T1 sequence (whole entry): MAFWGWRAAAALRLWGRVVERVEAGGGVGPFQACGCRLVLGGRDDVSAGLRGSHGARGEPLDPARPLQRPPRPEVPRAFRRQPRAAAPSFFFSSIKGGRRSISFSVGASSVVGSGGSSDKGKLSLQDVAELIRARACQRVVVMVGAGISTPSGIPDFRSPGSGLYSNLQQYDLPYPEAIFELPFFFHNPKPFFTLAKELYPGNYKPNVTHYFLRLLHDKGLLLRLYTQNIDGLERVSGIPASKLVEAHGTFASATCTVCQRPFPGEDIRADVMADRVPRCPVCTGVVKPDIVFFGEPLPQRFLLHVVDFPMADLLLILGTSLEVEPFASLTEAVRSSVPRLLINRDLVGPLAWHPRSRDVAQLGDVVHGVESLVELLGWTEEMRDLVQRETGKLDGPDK

[2] = target: T2, NAD-dependent protein deacetylase sirtuin-2 (Homo sapiens) (UniProt Q8IXJ6); test: Inhibition of recombinant GST-tagged SIRT2 (unknown origin) using Fluor de Lys acetylated KI179 as substrate at 200 uM incubated for 5 mins followed by enzyme addition measured after 1 hr by fluorescence assay relative to control
T2 sequence (whole entry): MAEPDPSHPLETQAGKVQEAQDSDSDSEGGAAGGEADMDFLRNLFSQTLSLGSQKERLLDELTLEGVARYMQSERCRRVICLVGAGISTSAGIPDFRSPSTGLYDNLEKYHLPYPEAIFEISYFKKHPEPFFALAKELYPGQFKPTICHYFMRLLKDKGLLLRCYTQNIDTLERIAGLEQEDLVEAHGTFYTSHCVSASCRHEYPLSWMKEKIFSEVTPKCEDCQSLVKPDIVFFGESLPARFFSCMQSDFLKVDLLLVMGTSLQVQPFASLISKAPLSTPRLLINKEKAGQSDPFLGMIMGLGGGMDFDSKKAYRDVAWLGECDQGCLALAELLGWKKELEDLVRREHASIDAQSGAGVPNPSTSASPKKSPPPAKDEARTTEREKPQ

[3] = target: T3, NAD-dependent protein deacetylase sirtuin-1 (Homo sapiens) (UniProt Q96EB6); test: Inhibition of recombinant GST-tagged SIRT1 (unknown origin) using Fluor de Lys acetylated KI177 as substrate at 200 uM incubated for 5 mins followed by enzyme addition measured after 1 hr by fluorescence assay relative to control
T3 sequence (whole entry): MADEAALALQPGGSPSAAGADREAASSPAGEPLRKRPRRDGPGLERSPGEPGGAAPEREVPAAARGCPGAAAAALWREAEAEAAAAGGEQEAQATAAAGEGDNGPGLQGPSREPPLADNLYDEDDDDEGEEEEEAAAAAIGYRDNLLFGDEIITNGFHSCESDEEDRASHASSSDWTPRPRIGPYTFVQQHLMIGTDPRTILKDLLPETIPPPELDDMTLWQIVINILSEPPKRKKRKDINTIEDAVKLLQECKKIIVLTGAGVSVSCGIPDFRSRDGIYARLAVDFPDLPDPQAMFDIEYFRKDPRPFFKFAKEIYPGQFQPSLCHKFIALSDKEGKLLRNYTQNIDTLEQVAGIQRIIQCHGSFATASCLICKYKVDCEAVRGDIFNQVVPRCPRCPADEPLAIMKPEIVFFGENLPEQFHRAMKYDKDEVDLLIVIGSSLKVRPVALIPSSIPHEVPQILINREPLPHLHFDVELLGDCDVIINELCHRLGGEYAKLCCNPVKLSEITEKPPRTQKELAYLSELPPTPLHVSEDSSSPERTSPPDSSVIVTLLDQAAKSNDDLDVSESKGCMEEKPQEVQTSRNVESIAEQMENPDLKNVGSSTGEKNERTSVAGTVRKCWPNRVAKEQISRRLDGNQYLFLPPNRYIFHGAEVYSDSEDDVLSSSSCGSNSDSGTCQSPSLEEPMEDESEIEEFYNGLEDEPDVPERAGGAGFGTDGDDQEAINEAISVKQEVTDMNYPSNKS

Row | inhibition [1] [%] | inhibition [2] [%] | inhibition [3] | Compound
1 | 7.6 |  |  | COc1ccc(N2C(=O)CC(NCCc3ccc(S(N)(=O)=O)cc3)C2=O)cc1 (stereo not given)
2 | 6.5 |  |  | O=C1CC(N2CCN(c3ccc(O)cc3)CC2)C(=O)N1c1ccccc1 (stereo not given)
3 | 8.4 |  |  | COc1ccc(N2C(=O)CC(N3CCN(c4ccccc4O)CC3)C2=O)cc1 (stereo not given)
4 | 11 |  |  | NS(=O)(=O)c1ccc(CCNC2CC(=O)N(c3ccc(Cl)c(Cl)c3)C2=O)cc1 (stereo not given)
5 | 15 |  |  | O=C1CC(N2CCC(Cc3ccccc3)CC2)C(=O)N1c1ccc(F)cc1 (stereo not given)
6 | 1.9 |  |  | O=C(CCC(=O)Nc1ccc(F)c(Cl)c1)Nc1ccc(F)c(Cl)c1
7 | 6.7 |  |  | CC(=O)Nc1ccc(NC(=O)CCC(=O)OCC(=O)c2cccc([N+](=O)[O-])c2)cc1
8 | 7.5 |  |  | O=C(NCC1CCN(Cc2ccccc2Cl)CC1)Nc1cccc(Cl)c1
9 | 20 |  |  | O=C1CC(N2CCN(c3cccc(C(F)(F)F)c3)CC2)C(=O)N1c1ccc(Cl)cc1 (stereo not given)
10 | 13 |  |  | O=C(Cc1ccccc1)Nc1ccc2oc(-c3ccc(Cl)cc3)nc2c1
11 | 17 |  |  | O=C(Cc1ccc(Cl)cc1)Nc1ccc2oc(-c3ccccc3F)nc2c1
12 | 6.8 |  |  | COc1cccc(-c2noc(CCC(=O)Nc3ccc(NC(C)=O)cc3)n2)c1
13 | 22 |  |  | O=C(Nc1ccc(Nc2ccccc2)cc1)c1c(Cl)cccc1Cl
14 | 5 |  |  | CCOc1ccc(N2C(=O)CC(N3CCN(C(=O)c4ccccc4)CC3)C2=O)cc1 (stereo not given)
15 | 11 |  |  | O=C1CC(N2CCN(c3cccc(C(F)(F)F)c3)CC2)C(=O)N1c1ccc(I)cc1 (stereo not given)
16 | 72 |  |  | O=C1C(Cl)=C(Nc2cccc(O)c2)C(=O)N1CCc1ccccc1
17 | 10 |  |  | Cc1ccccc1CC1CCN(CCCNC(=O)Nc2ccccc2)CC1
18 | 5.6 |  |  | Cc1cccc(CN2CCC(CNC(=O)NCc3ccc(F)cc3)CC2)c1
19 | 38 |  |  | O=C(/C=C/c1ccccc1)Nc1ccc2oc(-c3ccccc3F)nc2c1
20 | 16 |  |  | O=C(Cc1ccccc1)Nc1ccc2oc(-c3ccccc3F)nc2c1
21 | 34 |  |  | NS(=O)(=O)c1ccc(NC(=O)COC(=O)CN2C(=O)C(=O)c3ccccc32)cc1
22 | 6.4 |  |  | O=C1CC(N2CCN(c3ccc(F)cc3)CC2)C(=O)N1c1ccc2c(c1)OCO2 (stereo not given)
23 | 65 | 73 | 33% | O=C(Cc1ccccc1)Nc1ccc2oc(-c3cc(Cl)ccc3Cl)nc2c1
24 | 6.3 |  |  | O=C(CSCC(=O)Nc1ccc2ccccc2c1)NCc1ccccc1

Row | inhibition [1] [%] | inhibition [2] [%] | inhibition [3] | Compound
25 | 9.2 |  |  | O=C1CC(N2CCN(c3ccc(Cl)cc3)CC2)C(=O)N1c1ccc(F)cc1 (stereo not given)
26 | 48 | 78 | 27% | O=C(/C=C/c1ccccc1)Nc1ccc2oc(-c3ccccc3Cl)nc2c1
27 | 71 | 72 | 27% | O=C(Cc1ccccc1)Nc1ccc2oc(-c3ccc(Cl)cc3Cl)nc2c1
28 | 13 |  |  | Cc1cccc(N2C(=O)CC(N3CCN(c4cccc(C(F)(F)F)c4)CC3)C2=O)c1 (stereo not given)
29 | 13 |  |  | O=C1CC(N2CCN(c3cccc(C(F)(F)F)c3)CC2)C(=O)N1c1cccc(Cl)c1 (stereo not given)
30 | 11 |  |  | O=C(c1ccccc1)N1CCN(C2CC(=O)N(c3cccc(Cl)c3)C2=O)CC1 (stereo not given)
31 | 41 |  |  | O=C(Cc1ccccc1)Nc1ccc2oc(-c3cc(F)c(F)cc3Cl)nc2c1
32 | 5.6 |  |  | COc1ccc(N2C(=O)CC(N3CCN(c4ccc(S(C)(=O)=O)cc4)CC3)C2=O)cc1 (stereo not given)
33 | 39 | 35 | inactive | O=C(CSc1ncnc2c1oc1ccccc12)Nc1cccc(O)c1
34 | 10 |  |  | CCOc1ccc(N2C(=O)CC(N3CCN(C(=O)c4cccnc4)CC3)C2=O)cc1 (stereo not given)
35 | 6.9 |  |  | O=C1CC(N2CCN(c3ccc(F)cc3)CC2)C(=O)N1Cc1ccccc1 (stereo not given)
36 | 74 |  |  | O=C1CC(N2CCN(c3ccc([N+](=O)[O-])cc3)CC2)C(=O)N1c1ccccc1 (stereo not given)
37 | 7.5 |  |  | Cc1ccc(NC(=O)NCC2CCN(Cc3cc(C)ccc3Cl)CC2)c(C)c1
38 | 17 |  |  | Cc1ccc(-c2nc3cc(NC(=O)Cc4ccccc4)ccc3o2)cc1
39 | 44 |  |  | COc1cccc(-c2nc3cc(NC(=O)Cc4ccccc4)ccc3o2)c1
40 | 48 | 40 | 19% | O=C(Cc1ccccc1)Nc1ccc2oc(-c3cccc(Cl)c3Cl)nc2c1
41 | 32 |  |  | Cc1cccc(-c2nc3cc(NC(=O)Cc4ccccc4)ccc3o2)c1
42 | 6.6 |  |  | Cc1ccc(N2C(=O)CC(N3CCN(c4ccc(F)cc4)CC3)C2=O)cc1 (stereo not given)
43 | 51 | 44 | 17% | O=C(Cc1ccccc1)Nc1ccc2oc(-c3ccccc3Cl)nc2c1
44 | 33 |  |  | O=C(Cc1ccccc1)Nc1ccc2oc(-c3ccccc3Br)nc2c1
45 | 32 |  |  | O=C(Cc1ccc(Cl)cc1)Nc1ccc2oc(-c3ccccc3Br)nc2c1
46 | 17 |  |  | O=C(Cc1ccccc1)Nc1ccc2oc(-c3cccc(Cl)c3)nc2c1
47 | 13 |  |  | O=C(Cc1ccccc1)Nc1ccc2oc(-c3ccc(F)cc3Cl)nc2c1
48 | 16 |  |  | COc1ccc(CCNC2CC(=O)N(CCc3ccc(OC)c(OC)c3)C2=O)cc1OC (stereo not given)
